# Results: ChEMBL document CHEMBL5325482, “Discovery of [11C]MK-8056: A Selective PET Imaging Agent for the Study of mGluR2 Negative Allosteric Modulators” (ACS Med Chem Lett, 2023)
# Test system: P-gp
# Assay: in vitro
# Details: pig, LLC-PK1
row,SMILES,Papp
1,NC(=O)c1cc(-c2ccc(F)cc2)c2ccc(CCc3cccnc3)cc2n1,21 ×10⁻⁶ cm/s
2,NC(=O)c1cc(-c2ccc(F)cc2)c2ccc(CCc3cncnc3)cc2n1,30 ×10⁻⁶ cm/s
3,NC(=O)c1cc(-c2ccc(F)cc2)c2ccc(CCc3ccncc3)cc2n1,21 ×10⁻⁶ cm/s

# Test system: P-gp
# Assay: in vitro
# Details: pig, LLC-PK1
# Remark: another data set of the same source
row,SMILES,Papp
1,NC(=O)c1cc(-c2ccc(F)cc2)c2ccc(CCc3cccnc3)cc2n1,22 ×10⁻⁶ cm/s
2,NC(=O)c1cc(-c2ccc(F)cc2)c2ccc(CCc3cncnc3)cc2n1,28 ×10⁻⁶ cm/s
3,NC(=O)c1cc(-c2ccc(F)cc2)c2ccc(CCc3ccncc3)cc2n1,24 ×10⁻⁶ cm/s

# Test system: not listed separately
# Assay: physchem
# Details: PBS, pH 7
row,SMILES,logD
1,NC(=O)c1cc(-c2ccc(F)cc2)c2ccc(CCc3cccnc3)cc2n1,2.85
2,NC(=O)c1cc(-c2ccc(F)cc2)c2ccc(CCc3cncnc3)cc2n1,2.31
3,NC(=O)c1cc(-c2ccc(F)cc2)c2ccc(CN3C(=O)CCC3=O)cc2n1,2.24
4,NC(=O)c1cc(-c2ccc(F)cc2)c2ccc(CCc3ccncc3)cc2n1,2.88
5,NC(=O)c1cc(-c2ccc(F)cc2)c2ccc(Cc3ccncc3)cc2n1,2.7
